Key:
[1] = target: T1, OXA-1 β-lactamase (Class D oxacillinase) (Escherichia coli, UniProt P13661); assay: β-Lactamase inhibition, OXA-1; assay type: biochemical; settings: nitrocefin 100 μM, 486 nm; 15 min preincubation at 37° C., PBS pH 7.4
T1 construct: made in house; host or cells: E. coli BL21(DE3)
Protocol: For SHV-5, Kpc-2, p99AmpC and OXA-1 β-lactamases, E. coli BL21(DE3) bacterial cells carrying expression plasmids (expressed as native untagged proteins) for the individual β-lactamases were grown in 1 L of Superbroth (Teknova Inc. Hollister, Calif.) supplemented with 100 μg/ml kanamycin selection and 1×5052 (0.5% glycerol, 0.05% glucose and 0.2% α-lactose) at 35° C. for 18-20 hours. Cells were harvested by centrifugation (4,000×g, 4° C., 20 min), resuspended in 50 ml of 10 mM HEPES pH 7.5 ( 1/20 of the initial volume). The cells were lysed by sonication (5 pulses of 45 seconds) at 45 W on ice. The lysates were clarified by centrifugation at 10,000×g for 40 minutes at 4° C. Samples were diluted 5-fold in 50 mM sodium acetate pH 5.0, stored overnight at 4° C., after which they were centrifuged at 10,000×g for 30 minutes to clarify, and filtered through 0.45 μm filters. The samples were loaded onto a 5 ml Capto S sepharose cation exchange column (GE Healthcare) pre-equilibrated with 50 mM sodium acetate pH 5.0. The column was washed with 5 column volumes of 50 mM sodium acetate pH 5.0 to wash out unbound protein and a linear gradient of NaCl (0 to 500 mM) was used to elute the protein (over 16 CV) from the column. Fractions were assayed for β-lactamase activity using Centa (Calbiochem, Gibbstown, N.J.) or Nitrocefin (EMD Millipore chemicals, Darmstadt, Germany) as a reporter β-lactamase substrate for activity in the isolated fractions. Active fractions were pooled, concentrated and further purified by gel filtration chromatography on a Superdex 75 prep grade gel filtration column (GE Healthcare, Piscataway, N.J.) pre-equilibrated in 50 mM Hepes pH 7.5, 150 mM NaCl. Active fractions were pooled concentrated, quantitated by BCA protein determination (Thermo Scientific, Rockford, Ill.), dialyzed into PBS and frozen at −80° C. in 20% glycerol until use.
An equal volume of diluted enzyme stock was added, and the plates were incubated at 37° C. for 15 min. Nitrocefin was used as substrate for p99 AmpC, VIM-2 and OXA-1 and dispensed into each well at a final concentration of 100 μM. Absorbance at 486 nm was immediately monitored for 10 min using a Biotek Powerwave XS2 microplate spectrophotometer using the GEN5 software package (Biotek Instruments, Winooski Vt.). In an analogous fashion, imipenem was used as substrate for Kpc-2 and Cefotaxime was used for SHV-5, while changes in absorbance upon hydrolysis of the β-lactam ring were monitored at 300 nm and 260 nm respectively in UV-transparent 96-well microtiter assay plates. Maximum rates of hydrolysis were compared to those in control wells (without inhibitors), and percentages of enzyme inhibition were calculated for each concentration of inhibitor. The concentration of inhibitor needed to reduce the initial rate of hydrolysis of substrate by 50% (IC50) was calculated as the residual activity of β-lactamase at 486 nm using GraFit version 7 kinetics software package (Erithacus Software, Surrey, UK).
Using the methodology described above, examples of the current invention were evaluated for their ability to inhibit β-lactamase enzymes from all four Ambler classifications (A through D). […] NT=Not tested.

[2] = test system: K. pneumoniae A-1797 expressing KPC-2 and VIM-4; assay: Broth microdilution MIC, K. pneumoniae A-1797 KPC-2/VIM-4; assay type: cell-based; settings: fixed 4 μg/mL meropenem; CAMHB, 16-20 hours at 37° C.
Summary of the method: (§1)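 Visual MIC readout follows 16-20 h incubation at 37° C. Final compound range spans 32 down to 0.25 μg/ml in two-fold steps, each well also carrying a β-lactam at a static 4 μg/ml, with inoculation done by the CLSI microdilution method in cation-adjusted Mueller Hinton broth.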

[3] = test system: E. cloacae 144200 expressing Class C P99 AmpC; assay: Broth microdilution MIC, E. cloacae 144200 p99 AmpC; assay type: cell-based; settings: fixed 4 μg/mL ceftazidime; CAMHB, 16-20 hours at 37° C.
Summary of the method: as §1

[4] = target: T2, SHV-5 β-lactamase (Class A ESBL) (Klebsiella pneumoniae, UniProt P0A3M1); assay: β-Lactamase inhibition, SHV-5; assay type: biochemical
T2 construct: made in house; host or cells: E. coli BL21(DE3)
Summary of the method: (§2)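 Untagged enzyme from E. coli BL21(DE3), purified by Capto S then Superdex 75; 15 min 37 °C preincubation with inhibitor; KPC-2 read with imipenem at 300 nm, SHV-5 with cefotaxime at 260 nm, OXA-1 with nitrocefin 100 μM final at 486 nm; 10 min kinetic read; IC50 vs uninhibited wells.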

[5] = test system: S. aureus MSSA-7 producing penicillinase PC-1; assay: Broth microdilution MIC, S. aureus MSSA-7 PC-1; assay type: cell-based; settings: fixed 4 μg/mL piperacillin; CAMHB, 16-20 hours at 37° C.
Summary of the method: as §1

[6] = target: T3, p99 AmpC β-lactamase (Class C) (Enterobacter cloacae, UniProt P05364); assay: β-Lactamase inhibition, p99 AmpC; assay type: biochemical
T3 construct: made in house; host or cells: E. coli BL21(DE3)

[7] = target: T4, KPC-2 β-lactamase (Class A carbapenemase) (Klebsiella pneumoniae, UniProt Q9F663); assay: β-Lactamase inhibition, KPC-2; assay type: biochemical; settings: imipenem substrate, 300 nm; 15 min preincubation at 37° C., PBS pH 7.4
T4 construct: made in house; host or cells: E. coli BL21(DE3)
Summary of the method: as §2

[8] = test system: P. aeruginosa Ps296 expressing VIM-2; assay: Broth microdilution MIC, P. aeruginosa Ps296 VIM-2; assay type: cell-based; settings: fixed 4 μg/mL meropenem; CAMHB, 16-20 hours at 37° C.
Summary of the method: as §1

[9] = test system: E. coli ESBL4 expressing CTX-M-15; assay: Broth microdilution MIC, E. coli ESBL4 CTX-M-15; assay type: cell-based; settings: fixed 4 μg/mL ceftazidime; CAMHB, 16-20 hours at 37° C.
Summary of the method: as §1

[10] = test system: K. pneumoniae 156319 expressing KPC-3; assay: Broth microdilution MIC, K. pneumoniae 156319 KPC-3; assay type: cell-based; settings: fixed 4 μg/mL meropenem; CAMHB, 16-20 hours at 37° C.
Summary of the method: as §1

[11] = target: T5, VIM-2 metallo-β-lactamase (Class B) (Pseudomonas aeruginosa, UniProt Q9K2N0); assay: β-Lactamase inhibition, VIM-2; assay type: biochemical; settings: nitrocefin 100 μM, 486 nm; 15 min preincubation at 37° C., PBS pH 7.4
T5 construct: made in house; host or cells: E. coli BL21(DE3)
Summary of the method: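 Metallo-β-lactamase VIM-2 activity was tracked spectrophotometrically at 486 nm with 100 μM nitrocefin over 10 min, following 15 min preincubation with compound at 37 °C; inhibition was calculated per concentration.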

T3 sequence (P05364 21-381): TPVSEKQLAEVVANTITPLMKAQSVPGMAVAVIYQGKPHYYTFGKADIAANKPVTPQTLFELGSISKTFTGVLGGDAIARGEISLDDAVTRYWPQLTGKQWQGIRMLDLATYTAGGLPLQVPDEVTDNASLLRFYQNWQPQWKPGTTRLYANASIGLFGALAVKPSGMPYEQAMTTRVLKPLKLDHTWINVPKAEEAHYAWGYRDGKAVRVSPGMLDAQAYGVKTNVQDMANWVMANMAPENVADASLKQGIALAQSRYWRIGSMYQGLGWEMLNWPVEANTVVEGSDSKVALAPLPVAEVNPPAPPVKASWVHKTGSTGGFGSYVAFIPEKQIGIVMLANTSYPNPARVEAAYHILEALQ
T4 sequence (Q9F663 25-293, looked up): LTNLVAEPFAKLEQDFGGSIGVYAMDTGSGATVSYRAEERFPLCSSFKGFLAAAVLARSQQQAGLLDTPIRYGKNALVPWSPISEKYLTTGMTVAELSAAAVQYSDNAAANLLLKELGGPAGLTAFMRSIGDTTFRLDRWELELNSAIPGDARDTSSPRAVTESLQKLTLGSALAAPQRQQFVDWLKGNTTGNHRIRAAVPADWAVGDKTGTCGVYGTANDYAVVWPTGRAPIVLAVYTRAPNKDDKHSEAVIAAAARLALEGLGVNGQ
T2 sequence (P0A3M1 22-286): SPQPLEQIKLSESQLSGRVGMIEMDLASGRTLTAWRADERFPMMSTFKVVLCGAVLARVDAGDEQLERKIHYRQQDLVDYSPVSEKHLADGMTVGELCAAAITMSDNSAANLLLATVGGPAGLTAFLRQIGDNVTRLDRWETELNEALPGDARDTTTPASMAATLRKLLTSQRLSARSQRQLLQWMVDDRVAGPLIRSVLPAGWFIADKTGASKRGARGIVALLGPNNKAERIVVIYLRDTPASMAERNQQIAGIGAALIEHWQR
T1 sequence (P13661 26-276): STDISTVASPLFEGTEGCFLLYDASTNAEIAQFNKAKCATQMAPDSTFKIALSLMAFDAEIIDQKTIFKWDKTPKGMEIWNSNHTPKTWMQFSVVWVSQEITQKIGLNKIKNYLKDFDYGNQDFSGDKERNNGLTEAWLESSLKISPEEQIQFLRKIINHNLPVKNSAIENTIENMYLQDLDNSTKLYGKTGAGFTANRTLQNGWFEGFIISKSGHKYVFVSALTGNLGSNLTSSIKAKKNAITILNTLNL

SMILES | IC50 [1] [nM] | MIC of example compound in presence of fixed β-lactam: Fixed Mero, K. P. A-1797 KPC-2 VIM-4 [2] | MIC of example compound in presence of fixed β-lactam: Fixed CAZ, E. cl. 144200 p99 AmpC [3] | IC50 [4] [nM] | MIC of example compound in presence of fixed β-lactam: Fixed Pip, S. aureus MSSA-7 PC-1 [5] | IC50 [6] [nM] | IC50 [7] [nM] | MIC of example compound in presence of fixed β-lactam: Fixed Mero, P. aerug. Ps296 VIM-2 [8] | MIC of example compound in presence of fixed β-lactam: Fixed CAZ, E. coli ESBL4 CTX-M-15 [9] | MIC of example compound in presence of fixed β-lactam: Fixed Mero, K. P. 156319 KPC-3 [10] | IC50 [11] [µM]
NCCN1CCN(CC(=O)N[C@H]2Cc3cccc(C(=O)O)c3OB2O)CC1 [Example 16, 3-{2-[4-(2-Amino-ethyl)-piperazin-1-yl]-acetylamino}-2-hydroxy-3,4-dihydro-2H-benzo[e][1,2]oxaborinine-8-carboxylic acid] | < 100 | B (the MIC in the presence of between 8 and 32 μg/mL of a β-lactamase inhibitor) | C (the MIC in the presence of <4 μg/mL of a β-lactamase inhibitor) | < 100 | C (the MIC in the presence of <4 μg/mL of a β-lactamase inhibitor) | < 100 | 100 to 1000 | C (the MIC in the presence of <4 μg/mL of a β-lactamase inhibitor) | C (the MIC in the presence of <4 μg/mL of a β-lactamase inhibitor) | C (the MIC in the presence of <4 μg/mL of a β-lactamase inhibitor) | 1 to 10
O=C(CN[C@@H]1CCNC1)N[C@H]1Cc2cccc(C(=O)O)c2OB1O [Example 9, 2-Hydroxy-3-[2-(pyrrolidin-3-ylamino)-acetylamino]-3,4-dihydro-2H-benzo[e][1,2]oxaborinine-8-carboxylic acid] | < 100 | A (an MIC of the fixed β-lactam antibiotic in the presence of >32 μg/mL of a β-lactamase inhibitor) | C (the MIC in the presence of <4 μg/mL of a β-lactamase inhibitor) | < 100 | C (the MIC in the presence of <4 μg/mL of a β-lactamase inhibitor) | < 100 | < 100 | A (an MIC of the fixed β-lactam antibiotic in the presence of >32 μg/mL of a β-lactamase inhibitor) | C (the MIC in the presence of <4 μg/mL of a β-lactamase inhibitor) | C (the MIC in the presence of <4 μg/mL of a β-lactamase inhibitor) | 10 to 100
O=C(O)c1cccc2c1OB(O)[C@@H](NC(=O)C1CN(c3ncccn3)C1)C2 [Example 48, (R)-2-hydroxy-3-(1-(pyrimidin-2-yl)azetidine-3-carboxamido)-3,4-dihydro-2H-benzo[e][1,2]oxaborinine-8-carboxylic acid] | < 100 | B (the MIC in the presence of between 8 and 32 μg/mL of a β-lactamase inhibitor) | C (the MIC in the presence of <4 μg/mL of a β-lactamase inhibitor) | < 100 | C (the MIC in the presence of <4 μg/mL of a β-lactamase inhibitor) | < 100 | < 100 | C (the MIC in the presence of <4 μg/mL of a β-lactamase inhibitor) | C (the MIC in the presence of <4 μg/mL of a β-lactamase inhibitor) | C (the MIC in the presence of <4 μg/mL of a β-lactamase inhibitor) | 1 to 10
O=C(CN1CCNCC1=O)N[C@H]1Cc2cccc(C(=O)O)c2OB1O [Example 8, 2-Hydroxy-3-[2-(2-oxo-piperazin-1-yl)-acetylamino]-3,4-dihydro-2H-benzo[e][1,2]oxaborinine-8-carboxylic acid] | < 100 | A (an MIC of the fixed β-lactam antibiotic in the presence of >32 μg/mL of a β-lactamase inhibitor) | C (the MIC in the presence of <4 μg/mL of a β-lactamase inhibitor) | 10000 to 100000 | C (the MIC in the presence of <4 μg/mL of a β-lactamase inhibitor) | < 100 | 100 to 1000 | A (an MIC of the fixed β-lactam antibiotic in the presence of >32 μg/mL of a β-lactamase inhibitor) | C (the MIC in the presence of <4 μg/mL of a β-lactamase inhibitor) | C (the MIC in the presence of <4 μg/mL of a β-lactamase inhibitor) | 1 to 10
NC1(C(=O)N[C@H]2Cc3cccc(C(=O)O)c3OB2O)CCNCC1 [Example 49, 3-[(4-Amino-piperidine-4-carbonyl)-amino]-2-hydroxy-3,4-dihydro-2H-benzo[e][1,2]oxaborinine-8-carboxylic acid] | < 100 | A (an MIC of the fixed β-lactam antibiotic in the presence of >32 μg/mL of a β-lactamase inhibitor) | C (the MIC in the presence of <4 μg/mL of a β-lactamase inhibitor) | < 100 | C (the MIC in the presence of <4 μg/mL of a β-lactamase inhibitor) | < 100 | < 100 | B (the MIC in the presence of between 8 and 32 μg/mL of a β-lactamase inhibitor) | C (the MIC in the presence of <4 μg/mL of a β-lactamase inhibitor) | C (the MIC in the presence of <4 μg/mL of a β-lactamase inhibitor) | 1 to 10
